From patent US4753925A, “Antibacterial 1,7-diamino-1,4-dihydro-4-oxo-3-quinolinecarboxylic acids” (Bayer Aktiengesellschaft, priority 1984, dated 1988) come the findings set out here.

SMILES strings stand for the structures. In brackets after ≈: the same amount, converted by molar mass.

One series concerns E. coli 455/7. Nature of the series: MIC, agar dilution test/Isosensitest medium. It is filed as cell-based. As to conditions: Escherichia coli, agar dilution test, Isosensitest medium. The text has this:
(§1) In most cases the values are identical, but for some strains they are about 2-4 times better.
(§2) Agar dilution test/Isosensitest medium
Background: In agar dilution the substance is mixed into plates at graded concentrations.

For another series, the system named is E. coli A 261. The series can be described thus: MIC, agar dilution test/Isosensitest medium. Format: cell-based. As to conditions: Escherichia coli, A261, agar dilution test, Isosensitest medium.
Source text: as §1, §2

A further series relates to Klebsiella 57 USA. The series can be described thus: MIC, agar dilution test/Isosensitest medium. The note with it: agar dilution test, Isosensitest medium. Format: cell-based.
Source text: as §1, §2

The next series deals with Klebsiella 6179. The series can be described thus: MIC, agar dilution test/Isosensitest medium. It is filed as cell-based. The note with it: agar dilution test, Isosensitest medium.
Source text: as §1, §2

For a further series, the system named is Proteus mir. 8175. The series can be described thus: MIC, agar dilution test/Isosensitest medium. The note with it: agar dilution test, Isosensitest medium. Format: cell-based.
Source text: as §1, §2

The subject of another series is Proteus mir. 8223. The series can be described thus: MIC, agar dilution test/Isosensitest medium. Format: cell-based. As to conditions: agar dilution test, Isosensitest medium.
Source text: as §1, §2

The test system of another series is Providencia 12052. Nature of the series: MIC, agar dilution test/Isosensitest medium. As to conditions: agar dilution test, Isosensitest medium. Format: cell-based.
Source text: as §1, §2

In a further series the test system is Pseudomonas W. The series can be described thus: MIC, agar dilution test/Isosensitest medium. The note with it: agar dilution test, Isosensitest medium. It is filed as cell-based.
Source text: as §1, §2

Series [1] can be described thus: Serum levels in mice after oral administration. The note with it: mouse, 5 mg/kg, read-out: Serum level; for concentration at 0.25 h: 15'; for concentration at 0.5 h: 30'. It is filed as in vivo.
Source text: as §1
Serum levels in mice after oral administration

The nature of series [2]: Serum levels in mice following subcutaneous administration. As to conditions: mouse, sc, 5 mg/kg, read-out: Serum level; for concentration at 0.25 h: 15'; for concentration at 0.5 h: 30'. Format: in vivo. The method, then: as §1
Serum levels in mice following subcutaneous
administration of 5 mg/kg

The test system of a further series is strains of Table 1. Nature of the series: MIC comparison over the strains of Table 1. Format: cell-based. The note with it: versus II.
Source text: as §1, §2

Series [3] is described as follows: Pharmacokinetics in mice following oral and parenteral administration. As to conditions: versus II. Format: in vivo.
Source text: as §1

`CNn1cc(C(=O)O)c(=O)c2cc(F)c(N3CCN(C)CC3)c(F)c21` [Example 3]: the MIC worked out at 8 µg/mL (≈ 22.7 µM) with E. coli 455/7; 0.06 µg/mL (≈ 0.17 µM) in the series on E. coli A 261; 0.125 µg/mL (≈ 0.355 µM) against Klebsiella 57 USA; 0.125 µg/mL (≈ 0.355 µM) against Klebsiella 6179; 0.25 µg/mL (≈ 0.71 µM) with Proteus mir. 8175; 4 µg/mL (≈ 11.4 µM) in the series on Proteus mir. 8223. The values for the minimal inhibitory concentration (MIC) against Providencia 12052 and in the series with Pseudomonas W. were 4 µg/mL (≈ 11.4 µM) and 1 µg/mL (≈ 2.84 µM), respectively. Also, the concentration at 0.25 h was 900 ng/mL in [1] and 1200 ng/mL in [2]. Moreover, the concentration at 0.5 h stood at 1200 ng/mL in series [1] and 1400 ng/mL in series [2]. The concentration at 1 h came to 600 ng/mL in series [1] and 920 ng/mL in series [2]. Also, the concentration at 2 h in series [1] turned out to be 250 ng/mL; in [2] it was 300 ng/mL. In the series with strains of Table 1 (for some strains), the “MIC values compared with II: times better” value is given as 2-4 times. For the same compound, the “MIC values compared with II” value in the series with strains of Table 1 (in most cases) is on record as “identical”. Besides, the “Bioavailability compared with the comparison product” value in series [3] (following oral and parenteral administration) is reported as “better bioavailability”. The “Serum levels compared with the comparison product” value in [3] (mice, oral and parenteral) is recorded as “higher serum levels”.
Turning to `CNn1cc(C(=O)O)c(=O)c2cc(F)c(N3CCN(C)CC3)cc21` [II, reference compound], the MIC against E. coli 455/7 came out at 8 µg/mL (≈ 23.9 µM); with E. coli A 261 it was 0.06 µg/mL (≈ 0.179 µM); against Klebsiella 57 USA, 0.25 µg/mL (≈ 0.748 µM); against Klebsiella 6179, 0.25 µg/mL (≈ 0.748 µM); against Proteus mir. 8175, 0.125 µg/mL (≈ 0.374 µM); against Proteus mir. 8223, 4 µg/mL (≈ 12 µM). Also, the minimal inhibitory concentration (MIC) came to 16 µg/mL (≈ 47.9 µM) against Providencia 12052 and 1 µg/mL (≈ 2.99 µM) against Pseudomonas W.. Further, the concentration at 0.25 h in series [1] came to 700 ng/mL; in series [2] it was 840 ng/mL. Further, the concentration at 0.5 h in [1] was found to be 580 ng/mL; in series [2], 1300 ng/mL. Moreover, the concentration at 1 h in series [1] turned out to be 320 ng/mL; in series [2], 450 ng/mL. The concentration at 2 h in series [1] and in series [2] was 100 ng/mL throughout.

As a reminder, the MIC is the smallest concentration in the dilution series that meets the test's criterion for growth inhibition. Lower therefore signals inhibition by little substance.
